Values of other authors as cited in patent publication US11655474B2, “Suppression of pathological angiogenesis by inhibition of NR2F6” (Regen Biopharma, Inc., priority 2019, dated 2023).

Key:
[1] = tested on: human microvascular ECs; settings: human microvascular ECs cultured in tumor-conditioned medium
[2] = tested on: ovarian cancer patients
[3] = subset that received paclitaxel with the antibody

Molecule	tumor CM-induced MDR1 up-regulation [1]	HR, overall survival ([2]; bevacizumab plus chemotherapy compared with chemotherapy alone, 95 percent CI: 0.69, 1.14)	median progression free survival (PFS) ([2]; bevacizumab plus chemotherapy, ovarian cancer patients, chemotherapy alone 3.4 months) [months]	median overall survival (OS) ([2]; bevacizumab plus chemotherapy, chemotherapy alone 13.3 months) [months]	improvement in median OS [2, 3] [month]	improvement in median PFS [2, 3] [month]	HR, PFS ([2]; subset that received paclitaxel with the antibody, 95 percent CI: 0.31, 0.72)	HR, OS ([2]; subset that received paclitaxel with the antibody, 95 percent CI: 0.41, 1.01)	median PFS ([2]; subset that received paclitaxel with the antibody, versus 3.9 months) [months]	median OS ([2]; subset that received paclitaxel with the antibody, versus 13.2 months) [months]	objective response rate ([2]; subset that received paclitaxel with the antibody, versus 30 percent) [%]
COc1cc2nccc(Oc3ccc(NC(=O)Nc4ccc(F)cc4F)c(F)c3)c2cc1OC [Ki8751]	blocked	–	–	–	–	–	–	–	–	–	–
bevacizumab: antibody which binds VEGF	–	0.89	6.8	16.6	9.2	5.7	0.47	0.64	9.6	22.4	53
